In general, IC50 refers to the midpoint of a concentration-inhibition curve.

The target of experiment [1] is T1, SIK2 (Homo sapiens, UniProt Q9H0K1). In words: SIK2 Enzymatic Assay Version 1 (ADP Glo). Format: biochemical. The conditions noted are these: enzyme 0.6 nM, 160 μM ATP and 140 μM HDAC5tide (each 2× final concentration); 30 minutes pre-incubation, 4 hours; ADPGlo luminescence; read-out: SIK2 ADP Glo IC50 (μM) (Test Example 1). On the procedure: All steps were performed at room temperature. Compounds were pre-plated onto an assay plate using an Echo acoustic dispenser (Labcyte, E550 or E555) at 20 nL per well. Enzyme prepared in Assay Buffer at 0.6 nM (2× final concentration) was added at 2 μL per well using the Multidrop Combi (Thermo Fisher—used for all additions in this assay) to the assay plate, spun for 1 min at 800-850 rpm (Allegra 6KR Beckman Coulter centrifuge), and incubated with compound for 30 minutes.
One column of wells was dedicated to a no-peptide negative control (containing only ATP). ADPGlo Reagent (prepared and aliquoted as per manufacturer instructions) was then added at 2 μL per well, spun and incubated for 40 min. ADPGlo Detection (prepared and aliquoted as per manufacturer instructions) was added at 2 μL per well to the assay plate, which was spun and incubated for at least 30 min. The plate was then read on the Pherastar (BMG Labtech) using a luminescence read. Gain was set by the 0.1 mM concentration of ADP wells in the ADP/ATP standard curve plate generated as per manufacturer instructions.
On the technique in general: ADP-Glo turns the ADP formed in a reaction into a luminescent signal.

Experiment [2] has as its target T1, SIK2. Briefly: SIK2 Enzymatic Assay High Version 2 (High ATP). The experiment is classed as biochemical. The method, boiled down: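 At room temperature, enzyme (6 nM, 2× final) was preincubated with compound for 30 min, then 6 mM ATP and 400 μM HDAC5tide (both 2× final) were added for 2 h. ADP formed was measured by ADP-Glo Max (2 h reagent, 1 h detection) using luminescence.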

T1 sequence (Q9H0K1 whole entry, species assumed): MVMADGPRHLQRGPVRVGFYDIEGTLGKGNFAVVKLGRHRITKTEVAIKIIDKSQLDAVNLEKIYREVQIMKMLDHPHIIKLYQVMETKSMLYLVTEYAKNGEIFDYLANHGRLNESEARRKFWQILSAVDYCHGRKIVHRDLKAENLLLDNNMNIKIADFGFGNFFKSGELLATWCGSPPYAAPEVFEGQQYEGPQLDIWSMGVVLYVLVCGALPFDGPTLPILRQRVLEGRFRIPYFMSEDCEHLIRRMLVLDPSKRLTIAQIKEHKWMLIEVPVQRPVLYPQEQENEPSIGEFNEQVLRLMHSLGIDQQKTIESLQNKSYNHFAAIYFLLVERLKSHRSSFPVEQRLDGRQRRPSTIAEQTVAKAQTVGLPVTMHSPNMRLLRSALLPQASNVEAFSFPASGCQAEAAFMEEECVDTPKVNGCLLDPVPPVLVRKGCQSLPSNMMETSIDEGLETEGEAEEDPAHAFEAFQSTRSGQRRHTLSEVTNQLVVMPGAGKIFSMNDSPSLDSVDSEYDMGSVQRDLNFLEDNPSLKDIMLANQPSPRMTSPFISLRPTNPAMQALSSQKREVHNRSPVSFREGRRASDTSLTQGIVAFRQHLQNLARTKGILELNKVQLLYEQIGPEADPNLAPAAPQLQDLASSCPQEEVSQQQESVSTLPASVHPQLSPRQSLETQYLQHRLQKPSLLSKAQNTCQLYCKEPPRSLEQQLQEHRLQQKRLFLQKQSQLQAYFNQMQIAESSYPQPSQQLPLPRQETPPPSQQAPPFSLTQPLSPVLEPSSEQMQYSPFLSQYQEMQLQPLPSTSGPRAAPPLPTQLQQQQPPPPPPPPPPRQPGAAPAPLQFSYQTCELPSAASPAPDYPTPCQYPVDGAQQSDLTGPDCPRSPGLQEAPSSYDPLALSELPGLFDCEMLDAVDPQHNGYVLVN

For the compound `CC(=O)N1CCC(Oc2cnc(C#N)cc2-c2ccn3nc(NC(=O)C4CC4)cc3c2)C1` (single isomer, unassigned) [Example 57, (*S)—N-(5-(5-((1-Acetylpyrrolidin-3-yl)oxy)-2-cyanopyridin-4-yl)pyrazolo[1,5-a]pyridin-2-yl)cyclopropanecarboxamide], the IC50 on SIK2 [1] came to 0.0103 µM; at SIK2 [2] it was 264 nM.
With `CN1CCC(Oc2cnc(C#N)cc2-c2ccn3nc(NC(=O)C4CC4)cc3c2)C1` (single isomer, unassigned) [Example 58, (*R)—N-(5-(2-cyano-5-((1-methylpyrrolidin-3-yl)oxy)pyridin-4-yl)pyrazolo[1,5-a]pyridin-2-yl)cyclopropanecarboxamide], the figures for the half-maximal inhibitory concentration (IC50) on SIK2 [1] and on SIK2 [2] were 0.00431 µM and 99.9 nM, respectively.
As for `CN1CCC(Oc2cnc(C#N)cc2-c2ccn3nc(NC(=O)C4CC4)cc3c2)C1` (single isomer, unassigned) [Example 59, (*S)—N-(5-(2-cyano-5-((1-methylpyrrolidin-3-yl)oxy)pyridin-4-yl)pyrazolo[1,5-a]pyridin-2-yl)cyclopropanecarboxamide], the results for the IC50 at SIK2 [1] and at SIK2 [2] were 0.0047 µM and 111 nM, respectively.
The matching figures for `Cc1cc(-c2ccn3nc(NC(=O)C4CC4)cc3c2)c(O[C@H]2CC[C@@H](O)C2)cn1` (single isomer, unassigned) [Example 179, cis-N-(5-(5-(((1*S,3*R)-3-hydroxycyclopentyl)oxy)-2-methylpyridin-4-yl)pyrazolo[1,5-a]pyridin-2-yl)cyclopropanecarboxamide]: 0.00308 µM and 52.1 nM.
The like results for `Cc1cc(-c2ccn3nc(NC(=O)C4CC4)cc3c2)c(O[C@@H]2CC[C@H](O)C2)cn1` (single isomer, unassigned) [Example 180, cis-N-(5-(5-(((1*R,3*S)-3-hydroxycyclopentyl)oxy)-2-methylpyridin-4-yl)pyrazolo[1,5-a]pyridin-2-yl)cyclopropanecarboxamide] were, in that order, 0.00358 µM and 60.9 nM.
For `Cc1cc(-c2ccn3nc(NC(=O)C4CC4)cc3c2)c(O[C@@H]2CNC[C@H](C(F)(F)F)C2)cn1` (single isomer, unassigned) [Example 445, N-[5-[2-methyl-5-[[(3*S,5*R)-5-(trifluoromethyl)-3-piperidyl]oxy]-4-pyridyl]pyrazolo[1,5-a]pyridin-2-yl]cyclopropanecarboxamide], the IC50 on SIK2 [1] turned out to be 0.00109 µM; against SIK2 [2] it was 11.6 nM.
The like results for `C[C@@H](Oc1ccc(C#N)cc1-c1ccn2nc(NC(=O)C3CC3)cc2c1)[C@@H]1CNCCO1` (single isomer, unassigned) [Example 477, (2*R, 1*S)—N-[5-[5-cyano-2-(1-morpholin-2-ylethoxy)phenyl]pyrazolo[1,5-a]pyridin-2-yl]cyclopropanecarboxamide] were, in that order, 0.00442 µM and 50.7 nM.
For the compound `Cc1cc(-c2ccn3nc(Nc4cc(C)nc(C)n4)cc3c2)c(OC[C@H]2CC[C@@H](O)CO2)cn1` (single isomer, unassigned) [Example 582, (3*R, 6*R)-6-[[4-[2-[(2,6-dimethylpyrimidin-4-yl)amino]pyrazolo[1,5-a]pyridin-5-yl]-6-methyl-3-pyridyl]oxymethyl]tetrahydropyran-3-ol], the IC50 turned out to be 0.00328 µM at SIK2 [1] and 62.2 nM against SIK2 [2].
Take `CN1C[C@@H]2C[C@H]1C[C@H]2Oc1cnc(C#N)cc1-c1ccn2nc(NC(=O)C3CC3)cc2c1` (single isomer, unassigned) [Example 595, (1*S, 4*S, 5*R)—N-[5-[2-cyano-5-[(2-methyl-2-azabicyclo[2.2.1]heptan-5-yl)oxy]-4-pyridyl]pyrazolo[1,5-a]pyridin-2-yl]cyclopropanecarboxamide]: the IC50 on SIK2 [1] was 0.000791 µM; on SIK2 [2], 18 nM.
The matching figures for `N#Cc1cc(-c2ccn3nc(NC(=O)C4CC4)cc3c2)c(OCC2CCNC2)cn1` (stereo in doubt) [Example 45, N-[5-[2-Cyano-5-[[(3R)-pyrrolidin-3-yl]methoxy]-4-pyridyl]pyrazolo[1,5-a]pyridin-2-yl]cyclopropanecarboxamide]: 0.00116 µM and 23.4 nM.
The like results for `Cc1cc(-c2ccn3nc(NC(=O)C4CC4)cc3c2)c(O[C@H]2CC[C@H](O)C2)cn1` (stereo in doubt) [Example 183, trans-N-(5-(5-(((1*S,3*S)-3-hydroxycyclopentyl)oxy)-2-methylpyridin-4-yl)pyrazolo[1,5-a]pyridin-2-yl)cyclopropanecarboxamide] were, in that order, 0.00201 µM and 34.9 nM.
The matching figures for `CN1CC[C@@H](COc2cnc(C#N)cc2-c2ccn3nc(NC(=O)C4CC4)cc3c2)C1` [Example 1, N-[5-[2-Cyano-5-[[(3R)-1-methylpyrrolidin-3-yl]methoxy]-4-pyridyl]pyrazolo[1,5-a]pyridin-2-yl]cyclopropanecarboxamide]: 0.00226 µM and 59.1 nM.
As to `CN1CC[C@@H](COc2cnc(C#N)cc2-c2ccn3nc(Nc4cccnc4)cc3c2)C1` [Example 4, (R)-5-((1-methylpyrrolidin-3-yl)methoxy)-4-(2-(pyridin-3-ylamino)pyrazolo[1,5-a]pyridin-5-yl)picolinonitrile], the IC50 was 0.0039 µM at SIK2 [1] and 74 nM at SIK2 [2].
The like results for `N#Cc1cc(-c2ccn3nc(NC(=O)C4CC4)cc3c2)c(O[C@H]2CCN(CC(F)(F)F)C2)cn1` [Example 5, N-[5-[2-cyano-5-[(3S)-1-(2,2,2-trifluoroethyl)pyrrolidin-3-yl]oxy-4-pyridyl]pyrazolo[1,5-a]pyridin-2-yl]cyclopropanecarboxamide] were, in that order, 0.000381 µM and 7.74 nM.
The matching figures for `N#Cc1cc(-c2ccn3nc(NC(=O)C4CC4)cc3c2)c(O[C@H]2CCNC2)cn1` [Example 6, (S)—N-(5-(2-cyano-5-(pyrrolidin-3-yloxy)pyridin-4-yl)pyrazolo[1,5-a]pyridin-2-yl)cyclopropanecarboxamide]: 0.00149 µM and 11.2 nM.
Regarding `N#Cc1cc(-c2ccn3nc(NC(=O)C4CC4)cc3c2)c(O[C@H]2CCN(C3CC3)C2)cn1` [Example 7, N-[5-[2-cyano-5-[(3S)-1-cyclopropylpyrrolidin-3-yl]oxy-4-pyridyl]pyrazolo[1,5-a]pyridin-2-yl]cyclopropanecarboxamide], the results for the IC50 on SIK2 [1] and against SIK2 [2] were 0.000725 µM and 29.9 nM, respectively.
Take `CN1CCC(Oc2cnc(C#N)cc2-c2ccn3nc(NC(=O)C4CC4)cc3c2)(C(F)(F)F)CC1` [Example 10, N-[5-[2-cyano-5-[[1-methyl-4-(trifluoromethyl)-4-piperidyl]oxy]-4-pyridyl]pyrazolo[1,5-a]pyridin-2-yl]cyclopropanecarboxamide]: the results for the half-maximal inhibitory concentration (IC50) at SIK2 [1] and against SIK2 [2] were 0.204 µM and 4870 nM, respectively.
The matching figures for `CN1CC[C@@H](Oc2cnc(C#N)cc2-c2ccn3nc(NC(=O)C4CC4)cc3c2)C(F)(F)C1` [Example 11, N-[5-[2-cyano-5-[[(4R)-3,3-difluoro-1-methyl-4-piperidyl]oxy]-4-pyridyl]pyrazolo[1,5-a]pyridin-2-yl]cyclopropanecarboxamide]: 0.0014 µM and 31.6 nM.
Turning to `CN1C[C@H]2C[C@@H]1C[C@H]2Oc1cnc(C#N)cc1-c1ccn2nc(NC(=O)C3CC3)cc2c1` [Example 13, N-[5-[2-cyano-5-[[(1R,4R,5R)-2-methyl-2-azabicyclo[2.2.1]heptan-5-yl]oxy]-4-pyridyl]pyrazolo[1,5-a]pyridin-2-yl]cyclopropanecarboxamide], the half-inhibitory concentration (IC50) at SIK2 [1] is 0.0208 µM; against SIK2 [2] it was 305 nM.
The matching figures for `N#Cc1cc(-c2ccn3nc(NC(=O)C4CC4)cc3c2)c(O[C@@H]2CCNCC2(F)F)cn1` [Example 15, N-[5-[2-cyano-5-[[(4R)-3,3-difluoro-4-piperidyl]oxy]-4-pyridyl]pyrazolo[1,5-a]pyridin-2-yl]cyclopropanecarboxamide]: 0.0027 µM and 39.9 nM.
`CN1CC[C@H](COc2cnc(C#N)cc2-c2ccn3nc(NC(=O)C4CC4)cc3c2)C1` [Example 16, (S)—N-(5-(2-cyano-5-((1-methylpyrrolidin-3-yl)methoxy)pyridin-4-yl)pyrazolo[1,5-a]pyridin-2-yl)cyclopropanecarboxamide]: the IC50 on SIK2 [1] stood at 0.00496 µM; at SIK2 [2], 236 nM.
Consider `N#Cc1cc(-c2ccn3nc(NC(=O)C4CC4)cc3c2)c(OC[C@@H]2CNCCO2)cn1` [Example 19, N-[5-[2-cyano-5-[[(2S)-morpholin-2-yl]methoxy]-4-pyridyl]pyrazolo[1,5-a]pyridin-2-yl]cyclopropanecarboxamide], for which the IC50 on SIK2 [1] was 0.000783 µM; against SIK2 [2], 8.38 nM.
The like results for `N#Cc1cc(-c2ccn3nc(NC(=O)C4CC4)cc3c2)c(OC[C@@H]2CC[C@H](N)C2)cn1` [Example 20, N-[5-[5-[[(1R,3S)-3-aminocyclopentyl]methoxy]-2-cyano-4-pyridyl]pyrazolo[1,5-a]pyridin-2-yl]cyclopropanecarboxamide] were, in that order, 0.00122 µM and 10.2 nM.

For the origin of these results see patent US20240158392A1 (Janssen Biotech, Inc., priority 2021, published 2024).
